From paper PMC8012331, “Drug-induced hepatic steatosis in absence of severe mitochondrial dysfunction in HepaRG cells: proof of multiple mechanism-based toxicity” (Cell Biology and Toxicology, 2020)

Experiments:
[1] = test system: fatty acid translocase (FAT, also known as CD36); assay: RT-qPCR FAT/CD36 mRNA in HepaRG cells; format: cell-based, human; details: 4 days, vs control
Description: Total RNA was extracted with the Nucleospin RNA isolation system purchased from Macherey-Nagel (Düren, Germany), which included a DNase treatment step. Quantification of isolated RNAs was assessed using a Nanodrop 1000 (Thermo Fisher Scientific, Waltham, MA). RNAs were reverse-transcribed into cDNAs using the High-Capacity cDNA Reverse Transcription Kit purchased from Applied Biosystems (Woolston, UK). Gene expression was assessed by real-time quantitative PCR analysis (RT-qPCR) using SYBR Green PCR Master Mix (Applied Biosystems) and a 384-well QuantStudio™ 7 Flex Real-Time PCR System (Thermo Fisher Scientific). Sequences of the primers used to measure gene expression are presented in Supplementary Table 3. Expression of GAPDH was chosen as reference and the 2^−ΔΔCt calculation method was used to express the relative expression of each selected gene.

[2] = test system: permeabilized HepaRG cells; assay: Oxygen consumption in permeabilized HepaRG cells (Seahorse); format: cell-based, human; details: for EC20 values for inhibition of O2 consumption, Glutamate + malate / EC20 values for inhibition of O2 consumption, Octanoyl-L-carnitine / EC20 values for inhibition of O2 consumption, Palmitoyl-CoA + L-carnitine / EC20 values for inhibition of O2 consumption, Palmitoyl-L-carnitine: state 3, mean ± SD, 2-3 runs
Description: Cryopreserved differentiated HepaRG cells (HPR116, Biopredic International) were thawed and seeded at 36,000 cells/well in Seahorse XFe96 cell culture microplate (Agilent) in HepaRG® Thawing/Plating/General Purpose Medium Supplement with antibiotics (Biopredic International) combined with 100 mL of William’s Medium E (Sigma) and incubated at 37 °C with 5% CO2. The day after, medium was replaced by HepaRG Maintenance/Metabolism Medium Supplement with antibiotics (Biopredic International) combined with 100 mL of William’s Medium E. […] Two technical replicates were carried out per condition in two to three independent experimental runs.

[3] = test system: primary human hepatocytes (PHH); assay: Neutral lipids with Nile red in primary human hepatocytes; format: cell-based; details: 4 days
Description: Primary human hepatocytes (PHH) were purchased from Biopredic International (Saint-Grégoire, France). Cells were seeded by the supplier in coated 96-well plates at a density of 5 × 10^4 cells/well. Upon receipt, culture medium was removed and replaced by William’s E medium supplemented as previously described for HepaRG cell differentiation, except for DMSO set at 1%. After 2–3 days, cells were treated as for HepaRG cells. For HepaRG cells and PHH, cells were always maintained in incubators at 37 °C with 5% CO2 and saturating humidity.
Cells were then incubated with PBS containing 0.1 μg/mL Nile red for 30 min and washed once. […] For each well, four pictures were taken at a magnification of × 20 and analyzed with Columbus software (PerkinElmer) for quantification. These pictures were always taken in four different areas around the center of each well, and these areas were the same from one well to another, as programmed by the Columbus software. This software was also designed to count only living cells after exclusion of dying cells harboring nuclei with abnormal shape or altered Hoechst intensity. […] Neutral lipids were then normalized per number of nuclei and expressed relative to control cells. Examples of images used for neutral lipid quantification are shown in Supplementary Fig. 2.

[4] = test system: phospho-IRE1α (Ser724); assay: Western blot phospho-IRE1α in HepaRG cells; format: cell-based, human
Description: Cells were lysed in ice-cold CelLytic M buffer (C2978; Sigma Aldrich) containing phosphatase and protease inhibitors from Roche Applied Science (Penzberg, Germany). Protein concentration was determined using the Pierce BCA Protein Assay Kit (Thermo Fisher Scientific) and equal amounts of protein were diluted with NuPAGE LDS Sample Buffer (Thermo Fisher Scientific). Samples (ca. 25 μg of proteins) were then separated by SDS-PAGE using NuPAGE 4–12% Bis-Tris gels (Thermo Fisher Scientific). Proteins were transferred to PVDF membranes (BioRad) and Ponceau S staining was used to confirm equal loading and transfer. Membranes were blocked in 7.5% milk in TBST (10 mM Tris–HCl, 100 mM NaCl, 0.02% Tween 20) for 1 h at room temperature and incubated overnight at 4 °C with antibodies against phospho-IRE1α (Ser724) (Abcam, ab124945), IRE1α (Cell Signaling, 3294), or HSC70 (Santa Cruz, sc-7298), whose dilutions were 1:1000. […] Protein content was quantified by densitometry with ImageJ software (National Institutes of Health, Bethesda, MD).

[5] = patients, ref given per drug, cited from earlier work; for Cmax: read-out: Maximum plasma concentration (Cmax) in patients
[6] = test system: apoC3 secretion; assay: apoC3 level in culture medium (HTRF), HepaRG cells; format: cell-based, human; details: 4 days, culture medium, vs control
[7] = test system: ERN1 (IRE1α); assay: RT-qPCR ERN1 mRNA in HepaRG cells; format: cell-based, human; details: 4 days, vs control
Procedure, shortened: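 DNase-treated total RNA from HepaRG cells reverse-transcribed and quantified by SYBR Green RT-qPCR. Expression normalised to GAPDH and given as relative values by the 2^−ΔΔCt method.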

Structure (SMILES) | FAT/CD36 mRNA level [1] | EC20 values for inhibition of O2 consumption, Glutamate + malate [2] | EC20 values for inhibition of O2 consumption, Octanoyl-L-carnitine [2] | EC20 values for inhibition of O2 consumption, Palmitoyl-CoA + L-carnitine [2] | EC20 values for inhibition of O2 consumption, Palmitoyl-L-carnitine [2] | Steatosis in PHH batches (six batches tested) [3] | Protein level of phospho-IRE1α (pIRE1α) [4] | Maximum plasma concentration (Cmax) in patients [5] | Cmax [5] | Effect on apoC3 secretion [6] | ERN1 (IRE1α) mRNA level [7] | EC20 for inhibition of O2 consumption, all substrates ([2]; all four substrates)
COc1ccc2c(c1)c(CC(=O)O)c(C)n2C(=O)c1ccc(Cl)cc1 [INDO, indomethacin] | significantly augmented | 119 ± 20 µM | 150 ± 11 µM | 79 ± 8 µM | 163 ± 26 µM | steatotic in two PHH batches | increased protein level | ≤ 8000 ng/mL | ≤ 22 µM | reduced the secretion | enhanced IRE1α mRNA level | –
CO[C@H]1/C=C/O[C@@]2(C)Oc3c(C)c(O)c4c(O)c(c(/C=N/N5CCN(C)CC5)c(O)c4c3C2=O)NC(=O)/C(C)=C\C=C\[C@H](C)[C@H](O)[C@@H](C)[C@@H](O)[C@@H](C)[C@H](OC(C)=O)[C@@H]1C [RIF, rifampicin] | this effect was not observed | > 200 µM | > 200 µM | > 200 µM | > 200 µM | induced steatosis in only one PHH batch | increased protein level | ≤ 15600 ng/mL | ≤ 19 µM | reduced the secretion | enhanced IRE1α mRNA level | above 200 μM
